Earlier results as cited in patent US20260373079A1, “USE OF LONG-ACTING FLUTICASONE PROPIONATE INJECTABLE SUSPENSIONS FOR TREATING AND PREVENTING INFLAMMATIONS OF THE GASTROINTESTINAL TRACT” (EUPRAXIA PHARMACEUTICALS INC., priority 2022, published 2026).

Experiments:
[1] = for first pass metabolism, relative to fluticasone: in words
[2] = treatment of EoE; subcutaneous; weekly dosing recommended
[3] = EoE patients

C[C@H]1C[C@H]2[C@@H]3CCC4=CC(=O)C=C[C@]4(C)[C@@]3(Cl)[C@@H](O)C[C@]2(C)[C@@]1(O)C(=O)CO [beclomethasone]
first pass metabolism, relative to fluticasone [1]: substantially lower

CCC(=O)O[C@]1(C(=O)SCF)[C@H](C)C[C@H]2[C@@H]3C[C@H](F)C4=CC(=O)C=C[C@]4(C)[C@@]3(F)[C@@H](O)C[C@@]21C [fluticasone]
first-pass metabolism ([1]; by the liver): ~ 99%

C[C@]12C=CC(=O)C=C1CC[C@H]1[C@@H]3C[C@@H](O)[C@](O)(C(=O)CO)[C@@]3(C)C[C@H](O)[C@@]12F [triamcinolone]
first pass metabolism, relative to fluticasone [1]: substantially lower

Dupixent: a monoclonal antibody that is administered subcutaneously
effective in patients [2]: 60 % of patients
upper respiratory tract infections [3]: 18 % of patients
